Results reported in patent US20130072534A1 (LABORATORIOS DEL DR. ESTEVE, S.A., priority 2009, published 2013).

Tested on: formalin-induced nociceptive behaviour
Test: Formalin test in mice (phase II licking/biting of the injected paw)
Format: in vivo, Male CD-1 mice
Settings: i.p.; for efficacy of analgesic effect (in words): formalin test
Method: To assess the reliability of the efficacy and potency of the compounds and combinations tested, the nociceptive response was assessed by the formalin test. The behaviour analysed was the total time spent in licking and biting of the injected paw measured during the 15-30 min period (phase II) (Dubuisson D., et al. Pain 1977, 4, 161 and Rosland et al., Pain 1990, 42, 235).
All drugs prepared at various concentrations were dissolved in 0.5% hydroxypropyl methylcellulose in distilled water and coadministered in a volume of 10 ml/kg per mice through the intraperitoneal (i.p.) route. Control animals received the same volume of vehicle.
Male CD-1 mice weighing between 20 and 25 g (Charles River Laboratories) are used for all the experiments. The animals were housed in a temperature-controlled room (21±1° C.) with air exchange every 20 min and an automatic 12-h light/dark cycle (light from 08.00 to 20.00 h). They were fed a standard laboratory diet and tap water ad libitum until the beginning of the experiments. The experiments were performed during the light phase (09.00-15.00 h). Naive animals were used throughout.
A concentrated formalin solution was diluted with saline to the appropriate concentration (2.5%). Formalin test was performed as described in Rosland et al., Pain 1990, 42, 235, with slight modifications. 20 microliters of the formalin solution was injected subcutaneously (s.c.) into the dorsal surface of the right hind paw of the mouse, using a Hamilton microsyringe with a 301/2-gauge needle. The nociceptive behaviour (licking and/or biting) was recorded from 15 to 35 min after formalin injection as an indicator of the pain response.
The method is based on the comparison of the effect of several doses of a combination at a determined ratio with respect to the effects achieved using different doses of each of the two agents. […] The theoretical additive dose (Zadd) for a combination was then calculated and compared with the experimental ED50 of the combination (Zt) as described in Tallarida, Drug synergism 2001, 298, 865-872. […]

Structure (SMILES)	efficacy of analgesic effect (in words)	maximum efficacy (analgesic effect) (formalin test (2.5% formalin s.c. into hind paw)) [%]
COc1ccc(C(CN(C)C)C2(O)CCCCC2)cc1 (racemic) [Venlafaxine, (rac)-1-[2-dimethylamino-1-(4-methoxyphenyl)-ethyl]cyclohexanol]	full efficacy	
Cc1ccc(-c2cc(C(F)(F)F)nn2-c2ccc(S(N)(=O)=O)cc2)cc1 [celecoxib, 4-[5-(4-methylphenyl)-3-(trifluoromethyl)pyrazol-1-yl]benzenesulfonamide]	ceiling effect	45.78
